Experimental data from US20230332232A1, “COMPOSITIONS AND METHODS FOR DIAGNOSING AND TREATING A DYSTONIA” (Duke University, priority 2020, published 2023).

System: wild-type (WT) murine embryonic fibroblasts (MEFs)
Assay: Untargeted LC/MS/MS proteomics of EVs from WT MEFs exposed 24 hours to drug, compared with untreated WT MEFs
Type: cell-based, mouse
Settings: for direction of modulated EV protein expression: WT cells
Procedure: Methods for isolation and purification of exosomes and extracellular vesicles (EV) were extensively reviewed. Experiments were performed to arrive at a robust and reproducible protocol. The protocol used herein is that set forth in Théry et al, 2006, which is incorporated by reference for it teaching of this protocol. This protocol involves depleting serum-derived EVs from cell culture media by overnight ultracentrifugation and exchanging media for 1% FBS EV-depleted media. Media is then collected from cells following a 24-hour conditioning period and EVs are isolated by 18-hour ultracentrifugation at 100,000 g (FIG. 1A).
EVs were isolated from media of cultured murine embryonic fibroblasts (MEFs) prepared in-house according to protocols described by Xu 2005 from DYT1 knockin mice (Tor1a^delGAG/+) (Goodchild R E, et al. (2005) Neuron. 48:923-932) and littermate wild-type (WT) controls. The cultured MEFs from the DYT1 mice were exposed for 24 hours to Ritonavir (RTV) while the MEFs from WT mice were exposed to vehicle, ISRIB, or Salubrinal (SAL). The EVs isolated from these WT cells and DYT1 were characterized by untargeted proteomics and RNA-seq to identify differentially expressed proteins and RNAs as candidate biomarkers. Experimenter and Proteomics core staff were blinded to genotype of cell cultures throughout preparation and analysis phases. EV isolation was confirmed by Western immunoblot documenting presence of the exosomal marker (TSG101) and absence of the endoplasmic reticulum (ER) marker (CANX) (FIG. 1B (Cohort 1) and FIG. 1C (Cohort 2)).
Following the bicinchoninic acid assay (BCA) analysis and Western immunoblot of a portion of samples for QC, 11.6 μg-129.2 μg of EV protein lysates in RIPA buffer were sent to the Duke Proteomics and Metabolomics Shared Resource core facility for LC/MS/MS quantitative proteomic analysis. Samples were first normalized to 20 μg and spiked with undigested casein at a total of 40 fmol/μg, 80 fmol/μg, or 160 fmol/μg, then reduced with 10 mM dithiolthreitol for 30 minute at 80° C. and alkylated with 20 mM iodoacetamide for 30 minutes at room temperature. Next, the samples were supplemented with a final concentration of 1.2% phosphoric acid and 741 μL of S-Trap (Protifi) binding buffer (90% MeOH/100 mM […]). Proteins were trapped on the S-Trap, digested using 20 ng/μL sequencing grade trypsin (Promega) for 1 hour at 47° C., and eluted using 50 mM TEAB, followed by 0.2% FA, and lastly using 50% CAN/0.2% FA. All samples were then lyophilized to dryness and resuspended in 40 μL 1% TFA/2% acetonitrile containing 12.5 fmol/μL yeast alcohol dehydrogenase (ADH_YEAST). A QC Pool was created from 3 uL of each sample. All QC Pools were run periodically throughout the acquisition period.
Quantitative LC/MS/MS was performed on 2 μL of each sample, using a nanoAcquity UPLC system (Waters Corp) coupled to a Thermo Orbitrap Fusion Lumos high resolution accurate mass tandem mass spectrometer (Thermo) via a nanoelectrospray ionization source. Briefly, the sample was first trapped on a Symmetry C18 20 mm×180 μm trapping column (5 μL/min at 99.9/0.1 v/v water/acetonitrile), after which the analytical separation was performed using a 1.8 μm Acquity HSS T3 C18 75 μm×250 mm column (Waters Corp.) with a 90 minute linear gradient of 5% to 30% acetonitrile with 0.1% formic acid at a flow rate of 400 nanoliters/minute (nL/min) with a column temperature of 55° C. Data collection on the Fusion Lumos mass spectrometer was performed in a data-dependent acquisition (DDA) mode of acquisition with a r=120,000 (@ m/z 200) full MS scan from m/z 375-1500 with a target AGC value of 2e5 ions. MS/MS scans were acquired at Rapid scan rate (Ion Trap) with an AGC target of 5e3 ions and a max injection time of 100 ms. The total cycle time for MS and MS/MS scans was 2 seconds. A 20 second dynamic exclusion was employed to increase depth of coverage. The total analysis cycle time for each sample injection was approximately 2 hours. […]

[1] = EV protein Prep, Prolyl endopeptidase
[2] = EV protein Protein transport protein Sec31A
[3] = EV protein Q8BPB5, EGF-containing fibulin-like ECM protein 1
[4] = EV protein Q8C878, NEDD8-activating enzyme E1 catalytic subunit
[5] = EV protein Q8R081, Heterogeneous nuclear ribonucleoprotein 1
[6] = EV protein Q9D1M4, Eukaryotic translation EF1 epsilon-1
[7] = EV protein Q62261, Spectrin beta chain, non-crythrocytic 1
[8] = EV protein Q89051, Integral membrane protein 2B
[9] = EV protein Regulator of nonsense transcripts 1

**Q.** With `O=C(COc1ccc(Cl)cc1)NC1CCC(NC(=O)COc2ccc(Cl)cc2)CC1` (stereo not drawn) [ISRIB] as the compound, how does the “ISRIBvWT Z Score” value (EV protein P27612, Phospholipase A-2-activating protein) read?
**A.** The value was −2.39.

**Q.** And the “ISRIB Direction Same as dE?” value (EV protein P48678, Prelamin-)?
**A.** The value was “yes”.

**Q.** And the “ISRIBvWT Z Score” value (EV protein P48678, Prelamin-)?
**A.** The value was −0.19.

**Q.** And the “ISRIBvWT Z Score” value (EV protein P61089, Ubiquitin-conjugating enzyme)?
**A.** Its value is 0.41.

**Q.** And the “ISRIBvWT Z Score” value (EV protein Pdia4 (P08003))?
**A.** Its value is 1.37.

**Q.** And the “ISRIBvWT Z Score” value (EV protein Penk (P22005))?
**A.** Its value is −0.11.

**Q.** And the “ISRIBvWT Z Score” value (EV protein Plaa P27612)?
**A.** Its value is −2.39.

**Q.** What about the “ISRIBvWT Z Score” value (EV protein Pld3 (Q35405)) of the same compound?
**A.** The value was 1.18.

**Q.** What about the “ISRIB Direction Same as dE?” value [1] of the same compound?
**A.** The value was “yes”.

**Q.** What about the “ISRIBvWT Z Score” value [1] of the same compound?
**A.** Its value is −1.11.

**Q.** And the “ISRIB Direction Same as dE?” value [2]?
**A.** The value was “yes”.

**Q.** What about the “ISRIBvWT Z Score” value [2] of the same compound?
**A.** The value was −1.34.

**Q.** And the “ISRIB Direction Same as dE?” value (EV protein Prpf8 (Q99PV0))?
**A.** The value was “yes”.

**Q.** What about the “ISRIBvWT Z Score” value (EV protein Prpf8 (Q99PV0)) of the same compound?
**A.** Its value is −0.01.

**Q.** What about the “ISRIB Direction Same as dE?” value (EV protein Psmd1 (Q3TXS7)) of the same compound?
**A.** The value was “yes”.

**Q.** What about the “ISRIBvWT Z Score” value (EV protein Psmd1 (Q3TXS7)) of the same compound?
**A.** The value was −0.65.

**Q.** What about the “ISRIBvWT Z Score” value (EV protein Pura (P42669)) of the same compound?
**A.** The value was 0.52.

**Q.** What about the “ISRIBvWT Z Score” value (EV protein Q6X893, Choline transporter-like protein 1) of the same compound?
**A.** The value was 0.80.

**Q.** What about the “ISRIBvWT Z Score” value (EV protein Q8BL97, Serine arginine-rich splicing factor 7) of the same compound?
**A.** The value was 0.13.

**Q.** And the “ISRIB Direction Same as dE?” value [3]?
**A.** The value was “yes”.

**Q.** And the “ISRIBvWT Z Score” value [3]?
**A.** The value was 0.07.

**Q.** And the “ISRIB Direction Same as dE?” value [4]?
**A.** The value was “yes”.

**Q.** What about the “ISRIBvWT Z Score” value [4] of the same compound?
**A.** The value was −1.68.

**Q.** What about the “ISRIBvWT Z Score” value (EV protein Q8C878 NEDD8-activating enzyme .. subunit) of the same compound?
**A.** The value was −1.68.

**Q.** What about the “ISRIB Direction Same as dE?” value [5] of the same compound?
**A.** The value was “yes”.

**Q.** And the “ISRIBvWT Z Score” value [5]?
**A.** The value was −0.32.

**Q.** And the “ISRIB Direction Same as dE?” value [6]?
**A.** Its value is “yes”.

**Q.** And the “ISRIBvWT Z Score” value [6]?
**A.** Its value is −3.65.

**Q.** What about the “ISRIBvWT Z Score” value (EV protein Q9FS30, Complement C1q tumor necrosis factor-related protein 3) of the same compound?
**A.** The value was −0.18.

**Q.** What about the “ISRIBvWT Z Score” value (EV protein Q9Z1Z0, General vesicular transport factor p115) of the same compound?
**A.** The value was 2.44.

**Q.** And the “ISRIBvWT Z Score” value (EV protein Q9Z2X1 Heterogeneous nuclear ribonucleoprotein E)?
**A.** The value was −0.18.

**Q.** And the “ISRIBvWT Z Score” value (EV protein Q78ZA7, Nucelosome assembly protein 1-like 4)?
**A.** The value was 2.43.

**Q.** And the “ISRIBvWT Z Score” value (EV protein Q99KJ8 Dynactin subunit 2)?
**A.** The value was 0.53.

**Q.** What about the “ISRIBvWT Z Score” value (EV protein Q922B2 Aspartate--tRNA ligase) of the same compound?
**A.** The value was −1.13.

**Q.** What about the “ISRIBvWT Z Score” value (EV protein Q01405 Protein transport protein .. 23A) of the same compound?
**A.** The value was −0.95.

**Q.** What about the “ISRIBvWT Z Score” value (EV protein Q60751, Insulin-like growth factor 1 receptor) of the same compound?
**A.** The value was 0.75.

**Q.** And the “ISRIB Direction Same as dE?” value [7]?
**A.** Its value is “yes”.

**Q.** And the “ISRIBvWT Z Score” value [7]?
**A.** Its value is −0.82.

**Q.** What about the “ISRIB Direction Same as dE?” value [8] of the same compound?
**A.** Its value is “yes”.

**Q.** What about the “ISRIBvWT Z Score” value [8] of the same compound?
**A.** The value was −2.13.

**Q.** And the “ISRIB Direction Same as dE?” value (EV protein Qars (Q8BML9))?
**A.** The value was “yes”.

**Q.** And the “ISRIBvWT Z Score” value (EV protein Qars (Q8BML9))?
**A.** The value was −2.14.

**Q.** And the “ISRIBvWT Z Score” value (EV protein Rab6a (P35279))?
**A.** The value was 0.44.

**Q.** What about the “ISRIB Direction Same as dE?” value (EV protein Rbbp4 (Q60972)) of the same compound?
**A.** Its value is “yes”.

**Q.** And the “ISRIBvWT Z Score” value (EV protein Rbbp4 (Q60972))?
**A.** The value was −1.73.

**Q.** What about the “ISRIB Direction Same as dE?” value [9] of the same compound?
**A.** The value was “yes”.

**Q.** And the “ISRIBvWT Z Score” value [9]?
**A.** Its value is −1.84.

**Q.** And the “ISRIBvWT Z Score” value (EV protein Rpl22 (P67984))?
**A.** Its value is 2.38.

**Q.** What about the “ISRIBvWT Z Score” value (EV protein S100a11 (P50543)) of the same compound?
**A.** Its value is 0.33.

**Q.** And the “ISRIBvWT Z Score” value (EV protein Scarb2 (Q35114))?
**A.** Its value is 0.09.

**Q.** And the “ISRIB Direction Same as dE?” value (EV protein Sec23a (Q01405))?
**A.** Its value is “yes”.

**Q.** What about the “ISRIBvWT Z Score” value (EV protein Sec23a (Q01405)) of the same compound?
**A.** The value was −0.95.

**Q.** What about the “ISRIB Direction Same as dE?” value (EV protein Shmt2 (Q9CZN7)) of the same compound?
**A.** The value was “yes”.

**Q.** What about the “ISRIBvWT Z Score” value (EV protein Shmt2 (Q9CZN7)) of the same compound?
**A.** The value was −1.44.

**Q.** What about the “ISRIBvWT Z Score” value (EV protein Shrnt2 Q9CZN7) of the same compound?
**A.** The value was −1.44.

**Q.** And the “ISRIB Direction Same as dE?” value (EV protein Spp1 (P10923))?
**A.** Its value is “yes”.

**Q.** And the “ISRIBvWT Z Score” value (EV protein Spp1 (P10923))?
**A.** Its value is 2.67.

**Q.** What about the “ISRIB Direction Same as dE?” value (EV protein Sptan1 (P16546)) of the same compound?
**A.** Its value is “yes”.

**Q.** What about the “ISRIBvWT Z Score” value (EV protein Sptan1 (P16546)) of the same compound?
**A.** The value was −0.40.

**Q.** And the “ISRIBvWT Z Score” value (EV protein Ssb (P32067))?
**A.** The value was 0.41.

**Q.** And the “ISRIB Direction Same as dE?” value (EV protein Ssbp1 (Q9CYR0))?
**A.** Its value is “yes”.

**Q.** And the “ISRIBvWT Z Score” value (EV protein Ssbp1 (Q9CYR0))?
**A.** The value was −1.49.

**Q.** And the “ISRIBvWT Z Score” value (EV protein Svep1 (A2A0A0))?
**A.** The value was −0.50.

**Q.** And the “ISRIB Direction Same as dE?” value (EV protein Tars (Q9D0R2))?
**A.** The value was “yes”.

**Q.** And the “ISRIBvWT Z Score” value (EV protein Tars (Q9D0R2))?
**A.** The value was −1.16.

**Q.** And the “ISRIBvWT Z Score” value (EV protein Tra2b (P62996))?
**A.** Its value is 0.54.

**Q.** And the “ISRIBvWT Z Score” value (EV protein Vapa (Q9WV55))?
**A.** Its value is 3.18.

**Q.** What about the “direction of modulated EV protein expression” value (RTV Therapeutic Efficacy with ISRIB Insensitivity subset, 33 proteins) of the same compound?
**A.** Its value is “in the opposite direction of DYT1 genotype-dependent direction”.

**Q.** What about the “direction of modulated EV protein expression” value (RTV Therapeutic Efficacy with ISRIB Sensitivity subset, 121 proteins) of the same compound?
**A.** The value was “modulated expression in a predicted pathological direction”.
